Laboratory results taken from US20180344726A1, “ABUSE RESISTANT TRANSDERMAL DELIVERY DEVICES AND COMPOSITIONS COMPRISING AN OPIOID AGONIST AND A NON-TRANSDERMALLY DELIVERED N-OXIDE DERIVATIVE OF AN OPIOID ANTAGONIST FOR THE TREATMENT OF PAIN” (priority 2015, published 2018).
Like-named read-outs stand apart in the source and are kept apart here.

Tests used:
Format in all cases: physicochemical
[1] = Concentration of saturated antagonist solutions in phosphate buffer pH 5.0; settings: phosphate buffer pH 5.0, stirred overnight, filtered
Method: The determination of in vitro skin permeation was performed with saturated solutions of the respective antagonist species. Therefore an excess of the antagonist was weighed in phosphate buffer of pH 5.0 and stirred overnight. pH was monitored and, if necessary, adjusted. The cells were incubated at 32° C. Solutions were filtrated through a syringe filter (1 μm PTFE) prior to application into the diffusion cells. Concentrations of the solutions were determined.
The determination of naloxone and naloxone N-oxide in the acceptor medium of the in vitro skin permeations samples (receptor phase) was done by HPLC with UV-detection.

[2] = Log P by potentiometric (pH-metric) octanol/water titration; settings: Neutral species, 25.0 ° C., 0.15M KCl, read-out: LogP
Method: (§1) pKa analysis was performed using a pH-metric method. […] No precipitation or degradation was observed and two pKas were determined from the potentiometric data. Log P was determined using the potentiometric (pH-metric method). The sample was titrated in various ratios of octanol/water in two titrations covering the pH range 2.0-12.0 at concentrations of 1.9-1.1 mM. The shift of the aqueous pKas in the presence of octanol was used to determine the log P of the neutral species.

[3] = pKa analysis by pH-metric triple titration; settings: aqueous solution, […] C., […] KCl, read-out: pKa
Method: as §1

In the case of C=CCN1CC[C@]23c4c5ccc(O)c4O[C@H]2C(=O)CC[C@@]3(O)[C@H]1C5 [Naloxone, (4R,4aS,7aR,12bS)-4a,9-dihydroxy-3-prop-2-enyl-2,4,5,6,7a,13-hexahydro-1H-4,12-methanobenzofuro[3,2-e]isoquinoline-7-one, reference compound], the “Concentration saturated solution c” value [1] is reported as 4460 µg/mL, the logP [2] is reported as 1.97 and the pKa ([3]; Type Acid) is reported as 9.15 ± 0.01. For the same compound, the pKa ([3]; Type Base) was 8.07 ± 0.01.
